Measured values reported in publication PMC8279981, “A first-in-human, phase 1 study of the NEDD8 activating enzyme E1 inhibitor TAS4464 in patients with advanced solid tumors” (Investigational New Drugs, 2021).

Experiments:
[1] = system: patients with advanced or metastatic solid tumors; experiment: Phase 1 study: dose-limiting toxicities and maximum tolerated dose; format: in vivo
Protocol: The highest non-severely toxic dose was derived from a dog toxicology study and was used to calculate a clinical starting dose of 10 mg/m^2, which corresponds to one-sixth of the human-equivalent dose. The maximum tolerated dose (MTD) of TAS4464 was investigated using an accelerated titration design. Initially, the starting TAS4464 dose was 10 mg/m^2 and was followed by an initial accelerated stage (i.e., weekly dosing phase) with 100% dose-step increments (level 1: 10 mg/m^2, level 2: 20 mg/m^2, level 3: 40 mg/m^2, and level 4: 56 mg/m^2). The 100% dose-step increments continued until the occurrence of a grade ≥ 2 drug-related toxicity within Cycle 1; dose-limiting toxicity (DLT) within Cycle 1; the next dose level reaching 60 mg/m^2; or any safety concerns. Thereafter, 40% increments were employed in the standard stage.
In the standard stage, three to six patients were to be enrolled, and the dose was escalated in 40% increments if none of the first three patients experienced a DLT. If one patient experienced a DLT, three additional patients were to be enrolled at the same dose level. If two of three or two of six patients experienced a DLT, the dose escalation was to be ceased. […] Additionally, DLT criteria regarding abnormal liver function and discontinuation criteria for study drug administration were added. The TAS4464 dose level for Day 1 of Cycle 1 was then set to 40 mg/m^2 (level 3).
The primary objective of the study was to investigate DLTs. Treatment-related adverse events (AEs) during the lead-in period and Cycle 1 were included in the assessment of DLT, which was defined as follows: 1) grade 4 neutropenia lasting >7 days or neutropenia requiring treatment; 2) grade 4 thrombocytopenia or thrombocytopenia requiring blood transfusion; 3) febrile neutropenia; 4) grade ≥ 3 nausea, vomiting, or diarrhea lasting >48 h and uncontrolled by treatment; 5) grade ≥ 3 aspartate aminotransferase (AST) increase or alanine aminotransferase (ALT) increase lasting ≥3 days; or 6) any other grade ≥ 3 non-hematologic toxicity.

[2] = Plasma pharmacokinetics of TAS4464 in patients; format: in vivo, human
Protocol: The PK endpoints included maximum plasma concentration (Cmax), area under the concentration–time curve from time zero up to the last observable concentration (AUC0-last) and plasma accumulation of TAS4464 after multiple doses. PK parameters were evaluated on Day 1 of Cycle 1 and Day 15 of Cycle 1 in the weekly dosing cohort, as well as on Day 1 of the lead-in period and Day 1 of Cycle 1 in the weekly with lead-in dosing cohort. The evaluation of the relationship between solute carrier organic anion transporter family member 1B1 (SLCO1B1) genetic polymorphisms and PK (i.e., the mean and individual clearance [CL] and volume of distribution at steady-state [Vdss] by each OATP1B1 phenotype) was assessed as the PGx analysis endpoint.
The analysis populations included in the study are summarized in the Supplementary Appendix. DLTs were recorded by incidence and 95% confidence intervals (CI). Median PFS and 95% CIs were calculated using Kaplan–Meier methodology. Best overall response was tabulated, and the ORR and DCR with 95% CIs were calculated by dose level. PK parameters were evaluated using non-compartmental methods. For the pharmacodynamic parameter of cullin-NEDD8 in PBMC, summary statistics and a scatter plot of the percentage change from baseline were produced. Missing data were not imputed. […] SAS software v9.4 (SAS Institute Inc., Cary NC, USA) was used for all statistical processing.

[3] = system: cullin-NEDD8 complexes in PBMC; experiment: Cullin-NEDD8 protein in PBMC by ELISA; format: in vivo, human
Protocol: Assessment of pharmacodynamics included evaluation of cullin-NEDD8, p27^Kip1 protein expression, and cytokines in peripheral blood samples. Expression of cullin-NEDD8 protein in peripheral blood mononuclear cells (PBMC) was analyzed using an enzyme-linked immunosorbent assay (ELISA). For the weekly dosing cohorts, changes from baseline in cullin-NEDD8 complexes in the PBMC on Day 1 and Day 2 of Cycle 1 as measured by ELISA were evaluated. For the weekly dosing with lead-in period cohorts, changes from baseline in cullin-NEDD8 complexes on Day 2 were evaluated. Expression of p27^Kip1 protein (cyclin-dependent kinase inhibitor 1B), a substrate of CRL, was determined by immunohistochemistry (IHC). p27^Kip1 IHC was performed on biopsy tumor specimens collected at baseline and Day 2 of Cycle 1, and their staining intensities were assessed using H-Scoring, with the scores compared between baseline and Day 2 of Cycle 1. […]

[4] = system: nuclear factor κB (NFκB) activation; set-up: method as in PMID 31583781; conditions: multiple myeloma models; cited from earlier work
dog = system: dog; set-up: method as in unpublished data; conditions: TAS4464 without a N,N-dimethylacetamide group; ref unpublished data; cited from earlier work
[5] = plasma, multiple doses, data not shown

Structure (SMILES): CCOc1cccc(F)c1C#Cc1cn([C@@H]2O[C@H](CNS(N)(=O)=O)[C@@H](O)[C@H]2O)c2ncnc(N)c12 [TAS4464]
- MTD ([1]; weekly dosing regimen): could not be determined
- DLT incidence (grade 3 ALT increased and grade 3 AST increased) ([1]; weekly dosing with lead-in period, dose level 4 (56 mg/m^2)): 1/5
- DLT incidence (grade 4 ALT increased) ([1]; weekly dosing, dose level 4 (56 mg/m^2), DLT-evaluable population): 1/5 and one of five patients
- dose dependence of Cmax and AUC ([2]; dose range of 10–56 mg/m^2): generally increased with increasing dose
- accumulation ratio of AUC0-last [R (AUC0-last)] [2, 5]: ~1.0
- accumulation ratio of Cmax [R (Cmax)] [2, 5]: ~1.0
- cullin-NEDD8 complex measurements in PBMC versus baseline ([3]; Day 1 of Cycle 1, no dose-dependency): lower than those at baseline in all patients
- cullin-NEDD8 complex measurements in PBMC versus baseline ([3]; Day 2 of Cycle 1, dose dependency not observed): lower than those at baseline, with the exception of two patients
- mechanism of antitumor activity [4]: inhibition of nuclear factor κB (NFκB) activation
- toxic liver findings (dog): toxic liver findings were not observed
